Experimental data from article PMC12326976 (Antimicrobial Agents and Chemotherapy, 2025).
Peptide text beside a SMILES is read from it.

How the values were obtained:
H1N1 virus [1] = format: cell-based, influenza H1N1 virus
rhinovirus A1 = format: cell-based
H1N1 virus [2] = assay: Plaque reduction assay, H1N1 in MDCK cells; format: cell-based, influenza A/Hong Kong/415742/2009 (H1N1); conditions: H30 in 20% PBS compared to PBS, plaque assay, Fig. S1
Protocol: The antiviral activity of peptides was measured by plaque reduction assay. Briefly, peptides were dissolved in PBS or 20% PBS. Peptides (0.2-25.0 µg mL^−1) were premixed with H1N1 virus at room temperature. After 30 min of incubation, the peptide-virus mixture was transferred to MDCK cells for infection at 37°C. At 1 hpi, infectious media were removed, and then 1% low melting agar was added to cells. Cells were fixed using 4% formalin at 2–3 dpi. […] (0.1%) was added to cells for cell staining to count viral plaques.

SMILES | H1N1 viral release, supernatant virus at 8 hpi (H1N1 virus [1]) | antiviral activity against rhinovirus A1 in low salt (rhinovirus A1) | antiviral activity against H1N1 in low salt (H1N1 virus [2])
CC(=O)N[C@H]1[C@H]([C@H](O)[C@H](O)CO)OC(C(=O)O)=C[C@@H]1N=C(N)N [zanamivir, reference compound] | significantly inhibited H1N1 viral release from cells | – | –
CC[C@H](C)[C@H](NC(=O)[C@H](C)NC(=O)CN)C(=O)N[C@@H](CS)C(=O)N[C@@H](Cc1c[nH]cn1)C(=O)N1CCC[C@H]1C(=O)N[C@H](C(=O)N[C@@H](Cc1ccccc1)C(=O)N[C@@H](CS)C(=O)N1CCC[C@H]1C(=O)N[C@@H](CCCNC(=N)N)C(=O)N[C@@H](CCCNC(=N)N)C(=O)N[C@@H](Cc1ccc(O)cc1)C(=O)N[C@@H](CCCCN)C(=O)N[C@@H](CCC(N)=O)C(=O)N[C@H](C(=O)NCC(=O)N[C@H](C(=O)N[C@@H](CS)C(=O)NCC(=O)N[C@@H](CC(C)C)C(=O)N1CCC[C@H]1C(=O)NCC(=O)N[C@H](C(=O)N[C@@H](CCCCN)C(=O)N[C@@H](CS)C(=O)N[C@@H](CS)C(=O)N[C@@H](CCCCN)C(=O)N[C@@H](CCCCN)C(=O)N1CCC[C@H]1C(=O)O)[C@@H](C)O)[C@@H](C)O)[C@@H](C)CC)C(C)C [H30] (H-GAICHPVFCPRRYKQIGTCGLPGTKCCKKP-OH; N-terminus and C-terminus assumed) | – | could show more effective antiviral activity in low salt conditions | could show antiviral activity in the low salt condition of 20% phosphate-buffered saline
